“And” between values parts separate entries of the source, which are not always exact repeats. Equal values may be shown once.
What was measured:
[1] = tested on: photoreceptor cell death (TUNEL-positive response in the ONL); test: TUNEL analysis 72 hours after retinal detachment with subretinal TNF-alpha suppressing agents; type: in vivo, rat; conditions: subretinal 5 μl, 2 mg/mL, FIG. 12
Procedure: Retinal detachments were created only in the right eye of each animal, and the left eye served as a control. Following retinal detachment, various treatments were administered subretinally using a Hamilton syringe equipped with a 32-gauge needle. The tip of needle was introduced through a sclerotomy and retinal hole into the subretinal space, and 5 μl of solution, either normal goat serum (0.1 mg/mL), goat anti-TNF-alpha antibody (0.1 mg/mL), or etanercept (2 mg/mL), was injected over 3 minutes. Seventy-two hours after retinal detachment, the eyes were subjected to TUNEL analysis.

[2] = tested on: photoreceptor cell death (TUNEL-positive cells in the ONL); test: TUNEL staining 24 hours after retinal detachment with subretinal administration of cytokines; type: in vivo, rat; conditions: subretinal 5 μl of 0.1 μg/μl, PBS control 15.3±5.4, n=7
Procedure: Retinal detachment was induced by subretinal injection of sodium hyaluronate. Retinal tissues were collected at various time points (1, 3, 6, 24, 72 hours) after inducing retinal detachment. Neural retina was homogenized, and mRNA expression was quantified by QPCR. To identify the cellular sources of expressed genes, samples from various retinal layers were obtained using LCM. Immunohistochemistry and Enzyme Linked-Immuno-Sorbent Assay (ELISA) were performed to show expressional changes of proteins. TUNEL staining was used in order to assess photoreceptor death induced by retinal detachment with or without subretinal administration of cytokines.
Fifty-five adult male Brown Norway rats (200-300 g, Charles River, Boston, Mass.) were used in this study. Rats were anesthetized with a 1:1 mixture of ketamine (100 mg/mL) and xylazine (20 mg/mL; both from Phoenix Pharmaceutical, St. Joseph, Mo.). Pupils were dilated with a topically applied mixture of phenylephrine (5.0%) and tropicamide (0.8%; Massachusetts Eye and Ear Infirmary internal formulary preparation). A sclerotomy was created approximately 2 mm posterior to the limbus with a 22-gauge needle. Care was taken not to damage the lens during creation of the sclerotomy. A Glaser subretinal injector (20-gauge shaft with a 32-gauge tip, BD Biosciences, San Jose, Calif.) connected to a syringe filled with 10 mg/mL Healon® sodium hyaluronate (Pharmacia and Upjohn Co., Kalamazoo, Mich.) was then introduced into the vitreous cavity. […]
Subretinal administration of select cytokines was performed following the creation of retinal detachment. […] TUNEL-positive cells were counted in a masked fashion, and standard error was determined.
To investigate effects of cytokines on photoreceptor cell death induced by retinal detachment, TUNEL staining was performed 24 hours after retinal detachment with subretinal administration of PBS, TNF-alpha (0.1 μg/μl), IL-1 beta (0.1 μg/μl), or MCP-1 (0.1 μg/μl). […] In the control condition with PBS, TUNEL-positive cells were detected in the ONL 24 hours after retinal detachment (15.3±5.4 cells/field, n=7). […]

caspase 3 = biological target: T1, caspase 3 (Homo sapiens, UniProt P42574); conditions: cited from earlier work
T1 sequence (P42574 29-175 limits assumed): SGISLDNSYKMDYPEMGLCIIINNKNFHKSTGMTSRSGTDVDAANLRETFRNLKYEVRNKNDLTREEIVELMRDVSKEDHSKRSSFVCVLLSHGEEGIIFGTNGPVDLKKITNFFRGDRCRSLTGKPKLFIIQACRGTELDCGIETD
T1 sequence (P42574 176-277 limits assumed): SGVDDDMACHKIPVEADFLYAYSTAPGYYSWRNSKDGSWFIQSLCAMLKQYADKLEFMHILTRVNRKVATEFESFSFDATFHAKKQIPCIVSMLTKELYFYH

caspase 1 = biological target: T2, caspase 1 (Homo sapiens, UniProt P29466); conditions: cited from earlier work
T2 sequence (P29466 120-297 limits assumed): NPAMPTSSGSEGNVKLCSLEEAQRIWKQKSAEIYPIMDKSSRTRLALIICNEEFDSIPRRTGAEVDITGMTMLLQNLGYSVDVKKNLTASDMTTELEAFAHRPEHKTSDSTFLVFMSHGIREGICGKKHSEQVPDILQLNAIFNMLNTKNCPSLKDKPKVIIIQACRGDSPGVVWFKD
T2 sequence (P29466 317-404 limits assumed): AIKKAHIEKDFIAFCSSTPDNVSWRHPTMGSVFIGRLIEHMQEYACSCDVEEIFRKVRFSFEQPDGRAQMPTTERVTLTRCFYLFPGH

caspase 4 = biological target: T3, caspase 4 (Homo sapiens, UniProt P49662); conditions: cited from earlier work
T3 sequence (P49662 81-270 limits assumed): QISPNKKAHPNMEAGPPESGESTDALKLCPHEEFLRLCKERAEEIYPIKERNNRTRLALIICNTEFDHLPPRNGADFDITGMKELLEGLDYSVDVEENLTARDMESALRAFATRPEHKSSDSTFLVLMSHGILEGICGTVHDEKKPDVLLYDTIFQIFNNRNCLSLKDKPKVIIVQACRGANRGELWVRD
T3 sequence (P49662 290-377 limits assumed): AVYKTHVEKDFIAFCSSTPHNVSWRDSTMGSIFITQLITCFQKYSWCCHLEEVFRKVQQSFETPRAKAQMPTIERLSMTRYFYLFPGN

caspase 7 = biological target: T4, caspase 7 (Homo sapiens, UniProt P55210); conditions: cited from earlier work
T4 sequence (P55210 24-198 limits assumed): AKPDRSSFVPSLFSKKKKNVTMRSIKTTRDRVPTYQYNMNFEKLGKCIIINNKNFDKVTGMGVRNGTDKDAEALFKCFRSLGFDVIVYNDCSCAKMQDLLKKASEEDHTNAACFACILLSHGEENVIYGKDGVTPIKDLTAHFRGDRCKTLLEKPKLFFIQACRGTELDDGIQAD
T4 sequence (P55210 207-303 limits assumed): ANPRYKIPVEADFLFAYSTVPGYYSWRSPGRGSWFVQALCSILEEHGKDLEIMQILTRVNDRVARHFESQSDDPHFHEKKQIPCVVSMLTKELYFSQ

[3] = tested on: mRNA levels of bFGF, TNF-alpha, IL-1 beta; test: Realtime PCR of cytokine mRNA in detached retina after intravitreal PEDF; type: in vivo, rat; conditions: 5.0 μg intravitreal injection just after detachment versus PBS control; FIG. 16
Procedure: (§1) For both sets of experiments, all eyes were enucleated 72 hours after retinal detachment and embedded in paraffin. Four micron sections through the area of detachment, including the optic nerve, were obtained. Light microscopy was performed at 3× and at 32× magnification using hematoxylin-eosin staining. TUNEL staining was performed using a commercial kit (Oncogene, San Diego, Calif.) and viewed at 20× magnification using green fluorescein staining for TUNEL and blue DAPI nuclear staining. TUNEL-positive cells were counted per millimeter of tissue by a masked observer. The mean number of TUNEL-positive cells per millimeter of tissue was determined by averaging the number of TUNEL-positive cells per mm of tissue in three sections of each eye. Additionally, a realtime polymerase chain reaction (PCR) was performed for a variety of cytokines, including bFGF, TNF-alpha, and IL-1 beta, on extracted retina from normal eyes (n=6), untreated eyes with retinal detachment (n=6), PEDF-treated eyes with retinal detachment (n=6) and PBS-treated eyes with retinal detachment (n=6).
A realtime PCR was performed for a variety of cytokines, including bFGF, PEDF, TNF-alpha, IL-1 beta, HGF, CNTF, TGF beta, and IGF 1. The amount of each mRNA from each of six eyes treated with a 5.0 μg intravitreal injection of PEDF just after detachment was averaged. […]

[4] = tested on: photoreceptor cell death (TUNEL-positive cells); test: TUNEL staining 72 hours after retinal detachment with intravitreal or subretinal PEDF; type: in vivo, rat; conditions: for difference in number of TUNEL-positive cells, intravitreally-injected control eyes versus intravitreally-injected PEDF eyes: intravitreal; for Number of TUNEL-Positive Cells, Mean: 72 hours
Procedure: In these experiments, retinal detachments were created in Brown Norway rats by injecting […] into the subretinal space using a transvitreous approach. Treatment with PEDF (BioProducts MD, Middletown, Md.) or control vehicle was administered immediately after detachment. In an initial set of experiments, the treatment groups included: intravitreal administration of 2.5 μg PEDF (n=6); intravitreal administration of 5.0 μg PEDF (n=9); subretinal administration of 2.5 μg PEDF (n=6); subretinal administration of 5.0 μg PEDF (n=9); intravitreal administration of control vehicle (n=3); and subretinal administration of control vehicle (n=3). In a second set of experiments, the treatment groups included: intravitreal administration of 5.0 μg PEDF (n=15); subretinal administration of 5.0 μg PEDF (n=15); intravitreal administration of control vehicle (n=9); and subretinal administration of control vehicle (n=9).
as §1

etanercept
TUNEL-positive response in the ONL as compared to controls [1]: significantly decreased

MCP-1: rat recombinant MCP-1 administered subretinally
number of TUNEL-positive cells in the ONL [2]: 67.7±46.5 cells/field

TNF-alpha
number of TUNEL-positive cells in the ONL [2]: did not change significantly

Ac-Tyr-Val-Ala-Asp-aldehyde
Ki (caspase 3): ≥ 50000 nM | Ki (caspase 1): 10 nM | Ki (caspase 4): 10 nM | Ki (caspase 7): ≥ 50000 nM

2-Val-Ala-Asp-fluoromethylketone
caspase inhibition (caspase 3): inhibits | caspase inhibition (caspase 1): inhibits | caspase inhibition (caspase 4): inhibits | caspase inhibition (caspase 7): inhibits

B1: IL-1 beta: rat recombinant IL-1 beta administered subretinally (protein, UniProt Q63264 117-268, looked up)
Interleukin-1 beta: VPIRQLHCRLRDEQQKCLVLSDPCELKALHLNGQNISQQVVFSMSFVQGETSNDKIPVALGLKGLNLYLSCVMKDGTPTLQLESVDPKQYPKKKMEKRFVFNKIEVKTKVEFESAQFPNWYISTSQAEHRPVFLGNSNGRDIVDFTMEPVSS
number of TUNEL-positive cells in the ONL [2]: did not change significantly

B2: PEDF: pigment epithelium-derived factor (BioProducts MD), neurotrophic factor (protein, UniProt P36955 20-418, looked up)
Pigment epithelium-derived …: QNPASPPEEGSPDPDSTGALVEEEDPFFKVPVNKLAAAVSNFGYDLYRVRSSTSPTTNVLLSPLSVATALSALSLGAEQRTESIIHRALYYDLISSPDIHGTYKELLDTVTAPQKNLKSASRIVFEKKLRIKSSFVAPLEKSYGTRPRVLTGNPRLDLQEINNWVQAQMKGKLARSTKEIPDEISILLLGVAHFKGQWVTKFDSRKTSLEDFYLDEERTVRVPMMSDPKAVLRYGLDSDLSCKIAQLPLTGSMSIIFFLPLKVTQNLTLIEESLTSEFIHDIDRELKTVQAVLTVPKLKLSYEGEVTKSLQEMKLQSLFDSPDFSKITGKPIKLTQVEHRAGFEWNEDGAGTTPSPGLQPAHLTFPLDYHLNQPFIFVLRDTDTGALLFIGKILDPRGP
effect on mRNA levels of bFGF, TNF-alpha, IL-1 beta, or any of the cytokines measured [3]: does not significantly alter | difference in number of TUNEL-positive cells, intravitreally-injected control eyes versus intravitreally-injected PEDF eyes ([4]; initial set of experiments): no statistically significant difference | Number of TUNEL-Positive Cells, Mean ([4]; initial set of experiments, intravitreal 2.5 μg, control 23.3): 16.9 TUNEL-positive cells per millimeter of tissue | Number of TUNEL-Positive Cells, Mean ([4]; initial set of experiments, intravitreal 5.0 μg, control 23.3): 28.4 TUNEL-positive cells per millimeter of tissue | Number of TUNEL-Positive Cells, Mean ([4]; initial set of experiments, subretinal 2.5 μg, control 63.8): 17.6±15.5 TUNEL-positive cells per millimeter of tissue and 17.7 TUNEL-positive cells per millimeter of tissue | Number of TUNEL-Positive Cells, Mean ([4]; initial set of experiments, subretinal 5.0 μg, control 63.8): 30.4±18.1 TUNEL-positive cells per millimeter of tissue and 30.4 TUNEL-positive cells per millimeter of tissue | effect on photoreceptor cell death following retinal detachment as measured using TUNEL ([4]; larger sample set, either subretinally or intravitreally): no significant effect | difference in number of TUNEL-positive cells, intravitreally-injected control eyes versus intravitreally-injected PEDF eyes ([4]; second set of experiments): no statistically significant difference | Number of TUNEL-Positive Cells, Mean ([4]; second set of experiments, intravitreal 5.0 μg, control 30.2): 30.3 TUNEL-positive cells per millimeter of tissue
